Laboratory results as given in patent US20200022964A1, “COMPOSITIONS AND METHODS FOR TREATMENT OF INFLAMMATORY AUTOIMMUNE DISEASES” (New York University, priority 2018, published 2020).

How the values were obtained:
cPLA2 [1] = target: T1, cPLA2 (Mus musculus, UniProt P47713); test: Western blot of TNF activated phosphorylation of cPLA2 on Ser-505 in BMDMs; assay type: cell-based, mice; parameters: endogenous in cells; host or cells: mouse bone marrow derived macrophages (BMDMs); details: TNF-α 10 ng/mL; FFD 10 μM
T1 sequence (P47713 1-748): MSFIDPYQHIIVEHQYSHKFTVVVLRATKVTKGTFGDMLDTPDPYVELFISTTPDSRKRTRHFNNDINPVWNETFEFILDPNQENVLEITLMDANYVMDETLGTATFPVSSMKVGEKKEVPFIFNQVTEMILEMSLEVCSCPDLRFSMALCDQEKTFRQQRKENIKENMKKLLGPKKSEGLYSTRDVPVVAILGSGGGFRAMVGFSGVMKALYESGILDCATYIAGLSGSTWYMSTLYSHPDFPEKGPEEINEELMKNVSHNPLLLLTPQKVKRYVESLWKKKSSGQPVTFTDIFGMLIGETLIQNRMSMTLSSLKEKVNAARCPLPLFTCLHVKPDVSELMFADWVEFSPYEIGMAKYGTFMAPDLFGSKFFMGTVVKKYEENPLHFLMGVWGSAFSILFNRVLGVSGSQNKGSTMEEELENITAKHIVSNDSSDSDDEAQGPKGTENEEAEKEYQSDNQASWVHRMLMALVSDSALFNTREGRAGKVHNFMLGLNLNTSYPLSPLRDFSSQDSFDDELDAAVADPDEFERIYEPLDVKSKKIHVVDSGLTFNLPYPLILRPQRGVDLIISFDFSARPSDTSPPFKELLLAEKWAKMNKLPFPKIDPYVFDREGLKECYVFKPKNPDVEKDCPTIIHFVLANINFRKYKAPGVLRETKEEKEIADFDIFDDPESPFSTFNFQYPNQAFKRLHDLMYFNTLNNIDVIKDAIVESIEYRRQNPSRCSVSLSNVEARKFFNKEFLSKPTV
Protocol: Primary bone marrow derived macrophages (BMDMs) extraction. BMDMs were isolated from C57BL/6 and TNF-tg mice. After mice were sacrificed by cervical dislocation, the tibia and femur were isolated and both ends of the bones were cut to open the medullary cavity. Bone marrow cells were collected by centrifuge at 13000 g for 90 seconds and seeded in 6-well plates. Prior to their use in experiments, M-CSF (10 ng/ml, 576406, Biolegend) was added for 6 days to the BMDM culture medium.
Western blot. After protein samples were prepared, samples were separated by SDS-PAGE and transferred to a nitrocellulose (NC) membrane (162-0115, BIO-RAD) using a wet transfer system. Membrane was blocked in 5% (w/v) non-fat milk in TBST for half an hour at room temperature, followed by incubation with appropriate primary antibody overnight at 4° C. After washing, appropriate secondary antibody was added for 1 hour at room temperature. The bands on the membrane were developed by chemiluminescent (ECL) substrate and visualized by GelDoc system.

cPLA2 [2] = target: cPLA2 (Homo sapiens, UniProt P47712); details: 293 T cells transfected with Flag-tagged mutants
Protocol: (§1) DARTS assay. Drug affinity responsive target stability (DARTS) assay was performed based on previously reported methods^4. In brief, cell lysate was extracted by M-PER™ Mammalian Protein Extraction Reagent (78501, Thermo Fisher), briefly centrifuged, and mixed with drugs or DMSO for 1 hour on a rotator. Pronase (P5147, Sigma-Aldrich) was added in the mixture for 15 minutes at room temperature. Digestion was stopped by 10 minute incubation with protease inhibitor cocktail on ice. Samples were boiled in SDS loading buffer for SDS-PAGE and Western blot.
(§2) Site-directed mutagenesis.
(§3) Construction of plasmids. The construction of cPLA2 mutant plasmids was based on serial C-terminal and N-terminal deletion of the amino acid sequences associated with functional structure. Each plasmid carried a flag tag. The constructions were: full length cPLA2 (1-750), cPLA2 (126-750), cPLA2 (406-750), cPLA2 (1-479), and cPLA2 (1-144).
Target sequence in this assay (P47712 1-479): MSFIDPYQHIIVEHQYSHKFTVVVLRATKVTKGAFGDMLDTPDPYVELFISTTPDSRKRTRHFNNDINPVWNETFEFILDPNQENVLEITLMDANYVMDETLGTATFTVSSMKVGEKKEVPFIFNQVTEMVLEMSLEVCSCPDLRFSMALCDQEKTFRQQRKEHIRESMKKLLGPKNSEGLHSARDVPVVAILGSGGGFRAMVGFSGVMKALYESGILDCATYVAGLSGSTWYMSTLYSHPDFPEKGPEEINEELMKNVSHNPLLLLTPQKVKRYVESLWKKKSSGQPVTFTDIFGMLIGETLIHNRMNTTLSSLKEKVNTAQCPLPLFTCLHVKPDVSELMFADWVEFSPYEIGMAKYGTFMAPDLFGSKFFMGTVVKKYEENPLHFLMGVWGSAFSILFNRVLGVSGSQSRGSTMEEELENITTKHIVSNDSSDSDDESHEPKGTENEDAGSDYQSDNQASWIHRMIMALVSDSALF

cPLA2 [3] = target: cPLA2 (Homo sapiens, UniProt P47712, S505A); details: 293 T cells transfected with point mutant plasmid
Chain of cPLA2 (Homo sapiens, UniProt P47712, S505A) (P47712 whole entry S505A): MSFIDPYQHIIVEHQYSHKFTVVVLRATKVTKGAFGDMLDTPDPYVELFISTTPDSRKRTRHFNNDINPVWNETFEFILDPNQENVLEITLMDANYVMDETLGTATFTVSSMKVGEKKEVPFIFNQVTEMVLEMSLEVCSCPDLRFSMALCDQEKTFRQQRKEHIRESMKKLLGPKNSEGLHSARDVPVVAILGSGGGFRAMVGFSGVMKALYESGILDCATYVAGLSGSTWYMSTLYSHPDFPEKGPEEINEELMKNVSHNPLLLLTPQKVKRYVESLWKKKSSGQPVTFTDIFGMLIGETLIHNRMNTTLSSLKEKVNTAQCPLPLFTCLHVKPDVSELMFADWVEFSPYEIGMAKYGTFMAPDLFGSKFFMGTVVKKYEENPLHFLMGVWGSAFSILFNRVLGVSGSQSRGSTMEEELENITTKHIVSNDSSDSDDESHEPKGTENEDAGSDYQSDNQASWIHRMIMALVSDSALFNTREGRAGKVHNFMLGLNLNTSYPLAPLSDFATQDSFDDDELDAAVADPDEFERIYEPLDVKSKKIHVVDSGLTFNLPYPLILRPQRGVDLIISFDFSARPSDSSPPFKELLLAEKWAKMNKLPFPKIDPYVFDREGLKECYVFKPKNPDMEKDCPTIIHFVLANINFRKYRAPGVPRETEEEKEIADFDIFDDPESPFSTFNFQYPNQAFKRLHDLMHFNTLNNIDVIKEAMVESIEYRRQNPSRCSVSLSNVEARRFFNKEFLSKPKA
Protocol: as §1, §2, §3

cPLA2 [4] = details: series of protease to cell lysate ratios
Protocol: as §1, §2, §3

cPLA2 [5] = target: cPLA2 (Homo sapiens, UniProt P47712); details: 293 T cells transfected with Flag-tagged mutants; N-terminal C2D and CD1 deletion
Protocol: as §1, §2, §3
Target sequence in this assay (P47712 126-749): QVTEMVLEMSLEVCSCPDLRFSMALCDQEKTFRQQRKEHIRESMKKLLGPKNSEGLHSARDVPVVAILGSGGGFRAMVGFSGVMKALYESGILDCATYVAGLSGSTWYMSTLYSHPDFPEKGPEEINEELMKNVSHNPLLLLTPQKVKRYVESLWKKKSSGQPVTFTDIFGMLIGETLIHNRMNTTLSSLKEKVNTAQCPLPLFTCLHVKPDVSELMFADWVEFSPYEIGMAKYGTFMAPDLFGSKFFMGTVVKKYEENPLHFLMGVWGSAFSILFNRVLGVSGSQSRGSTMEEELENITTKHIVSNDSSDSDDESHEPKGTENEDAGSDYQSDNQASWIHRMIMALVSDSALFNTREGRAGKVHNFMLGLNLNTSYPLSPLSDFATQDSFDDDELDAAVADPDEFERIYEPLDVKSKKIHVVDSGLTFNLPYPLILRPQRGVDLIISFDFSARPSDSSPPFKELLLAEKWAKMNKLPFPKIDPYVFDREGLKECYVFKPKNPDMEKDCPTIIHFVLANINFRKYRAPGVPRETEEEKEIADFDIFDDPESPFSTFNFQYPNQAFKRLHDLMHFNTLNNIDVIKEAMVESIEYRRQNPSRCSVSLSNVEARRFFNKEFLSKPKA

Q: How did the “phosphorylation of cPLA2 on Ser-505” value (cPLA2 [1]) turn out when `CC(C)(C(=O)O)c1ccc(C(O)CCCN2CCC(C(O)(c3ccccc3)c3ccccc3)CC2)cc1` (centres unmarked) [fexofenadine] was run?
A: The value was “abolished”.

Q: And the “DARTS protective effects on mutants lacking the CD2 domain, cPLA2 (1-479) and cPLA2 (1-144)” value (cPLA2 [2])?
A: The value was “did not show any protective effects”.

Q: What about the “DARTS protective effect on Ser-505 to Ala point mutant of cPLA2” value (cPLA2 [3]) of the same molecule?
A: Its value is “lost its protective effect”.

Q: What about the “protection of cPLA2 from protease (DARTS, Western blot)” value (cPLA2 [4]) of the same molecule?
A: The value was “protected”.

Q: And the “DARTS protective effects on cPLA2 (126-750) and cPLA2(406-750)” value (cPLA2 [5])?
A: Its value is “retained protective effects”.
